Test results as given in ChEMBL document CHEMBL1255238, “Induction of erm(C) expression by noninducing antibiotics” (2008).
≈ marks a conversion by molar mass, not a printed value. Calls of active or inactive are those of the source. The calls are words filed in the database; no cut-off is given here.

Assays:
Escherichia coli [1] = experiment: Induction of erm(C) expression in Escherichia coli JM109 harboring Staphylococcus aureus erm(C)-containing pERMZalpha reporter plasmid at 10 mg/ml after 36 hrs at 37 degC by disc-based beta-galactosidase reporter gene assay; format: functional, organism-based
Escherichia coli [2] = experiment: Induction of erm(C) expression in Escherichia coli JM109 harboring Staphylococcus aureus erm(C)-containing pERMZ7 lacking codons 2 to 4 with additional mutations leader peptide cistrons reporter plasmid at 25 mg/ml after 36 hrs at 37 degC by disc-based beta-galactosidase reporter gene assay; format: functional, organism-based
Escherichia coli [3] = experiment: Induction of erm(C) expression in Escherichia coli JM109 harboring Staphylococcus aureus erm(C)-containing pERMZalpha reporter plasmid after 36 hrs at 37 degC by disc-based beta-galactosidase reporter gene assay; format: functional, organism-based
Escherichia coli [4] = experiment: Induction of erm(C) expression in Escherichia coli JM109 harboring Staphylococcus aureus erm(C)-containing pERMZdelta2-4 mutant leader peptide cistrons reporter plasmid at 25 mg/ml after 36 hrs at 37 degC by disc-based beta-galactosidase reporter gene assay; format: functional, organism-based
Escherichia coli [5] = experiment: Induction of erm(C) expression in Escherichia coli JM109 harboring Staphylococcus aureus erm(C)-containing pERMZalpha reporter plasmid at 1.5 mg/ml after 36 hrs at 37 degC by disc-based beta-galactosidase reporter gene assay; format: functional, organism-based
Escherichia coli [6] = experiment: Induction of erm(C) expression in Escherichia coli ZK796 harboring Staphylococcus aureus erm(C)-containing pERMCT plasmid assessed as increase in A2058 dimethylation in 23S rRNA at 25% MIC after 4 hrs by primer extension assay; format: functional, organism-based
Escherichia coli [7] = experiment: Induction of erm(C) expression in Escherichia coli JM109 harboring Staphylococcus aureus erm(C)-containing pERMZalpha reporter plasmid after 36 hrs at 25 mg/ml 37 degC by disc-based beta-galactosidase reporter gene assay; format: functional, organism-based
Escherichia coli [8] = experiment: Induction of erm(C) expression in Escherichia coli JM109 harboring Staphylococcus aureus erm(C)-containing pERMZalpha reporter plasmid at 8 mg/ml after 36 hrs at 37 degC by disc-based beta-galactosidase reporter gene assay; format: functional, organism-based
Escherichia coli [9] = experiment: Antimicrobial activity against Escherichia coli ZK796 harboring Staphylococcus aureus erm(C)-containing pERMCT plasmid; format: functional
Escherichia coli [10] = experiment: Antimicrobial activity against Escherichia coli ZK796 harboring empty plasmid; format: functional
Escherichia coli [11] = experiment: Induction of erm(C) expression in Escherichia coli ZK796 harboring Staphylococcus aureus erm(C)-containing pERMCT plasmid assessed as increase in A2058 dimethylation in 23S rRNA at 0.8 ug/ml after 30 mins by primer extension assay; format: functional, organism-based
Escherichia coli [12] = experiment: Induction of erm(C) expression in Escherichia coli JM109 harboring Staphylococcus aureus erm(C)-containing pERMZalpha reporter plasmid at 4.5 mg/ml after 36 hrs at 37 degC by disc-based beta-galactosidase reporter gene assay; format: functional, organism-based
Escherichia coli [13] = experiment: Induction of erm(C) expression in Escherichia coli ZK796 harboring Staphylococcus aureus erm(C)-containing pERMCT plasmid assessed as increase in A2058 dimethylation in 23S rRNA at 0.4 ug/ml at 2 hrs by primer extension assay; format: functional, organism-based
Escherichia coli [14] = experiment: Induction of erm(C) expression in Escherichia coli ZK796 harboring Staphylococcus aureus erm(C)-containing pERMCT plasmid assessed as increase in A2058 dimethylation in 23S rRNA at 0.4 ug/ml after 4 hrs by primer extension assay; format: functional, organism-based

Molecule | Activity (Escherichia coli [1]) | Activity (Escherichia coli [2]) | Activity (Escherichia coli [4]) | Activity (Escherichia coli [6]) | further results
CC[C@H]1OC(=O)C[C@@H](O)[C@H](C)[C@@H](O[C@@H]2O[C@H](C)[C@@H](O[C@H]3C[C@@](C)(O)[C@@H](O)[C@H](C)O3)[C@H](N(C)C)[C@H]2O)[C@@H](CC=O)C[C@@H](C)C(=O)/C=C/C(C)=C/[C@@H]1CO[C@@H]1O[C@H](C)[C@@H](O)[C@@H](OC)[C@H]1OC | inactive |  |  |  | 
CC[C@H]1OC(=O)[C@@](C)(F)C(=O)[C@H](C)[C@@H](O[C@@H]2O[C@H](C)C[C@H](N(C)C)[C@H]2O)[C@](C)(OC)C[C@@H](C)C(=O)[C@H](C)[C@@H]2N(CCCCn3cnc(-c4cccnc4)c3)C(=O)O[C@@]21C |  | inactive | inactive |  | Activity (Escherichia coli [3]): Active
CC[C@H]1OC(=O)[C@H](C)C(=O)[C@H](C)[C@@H](O[C@@H]2O[C@H](C)C[C@H](N(C)C)[C@H]2O)[C@](C)(OC)C[C@@H](C)C(=O)[C@H](C)[C@@H]2N(NCCCc3ccnc4ccccc34)C(=O)O[C@@]21C |  | inactive | inactive |  | Activity (Escherichia coli [5]): Active; Activity (Escherichia coli [3]): Active
CC[C@H]1OC(=O)[C@H](C)C(=O)[C@H](C)[C@@H](O[C@@H]2O[C@H](C)C[C@H](N(C)C)[C@H]2O)[C@](C)(OC)C[C@@H](C)C(=O)[C@H](C)[C@@H]2N(NCCc3ccccc3)C(=O)O[C@@]21C |  | inactive | inactive |  | 
CC[C@H]1OC(=O)[C@H](C)[C@@H](O[C@H]2C[C@@](C)(OC)[C@@H](O)[C@H](C)O2)[C@H](C)[C@@H](O[C@@H]2O[C@H](C)C[C@H](N(C)C)[C@H]2O)[C@](C)(O)C[C@@H](C)/C(=N\OCOCCOC)[C@H](C)[C@@H](O)[C@]1(C)O |  | inactive | inactive |  | 
CC[C@H]1OC(=O)[C@H](C)[C@@H](O[C@H]2C[C@@](C)(OC)[C@@H](O)[C@H](C)O2)[C@H](C)[C@@H](O[C@@H]2O[C@H](C)C[C@H](N(C)C)[C@H]2O)[C@](C)(O)C[C@@H](C)CN(C)[C@H](C)[C@@H](O)[C@]1(C)O |  | inactive | inactive | Active | Activity (Escherichia coli [7]): inactive
CC[C@H]1OC(=O)[C@H](C)[C@@H](O[C@H]2C[C@@](C)(OC)[C@@H](O)[C@H](C)O2)[C@H](C)[C@@H](O[C@@H]2O[C@H](C)C[C@H](N(C)C)[C@H]2O)[C@](C)(OC)C[C@@H](C)C(=O)[C@H](C)[C@@H](O)[C@]1(C)O |  | inactive | inactive |  | Activity (Escherichia coli [8]): Active
CC[C@H]1OC(=O)[C@H](C)[C@@H](O[C@H]2C[C@@](C)(OC)[C@@H](O)[C@H](C)O2)[C@H](C)[C@@H](O[C@@H]2O[C@H](C)C[C@H](N(C)C)[C@H]2O)[C@](C)(OC)C[C@@H](C)C(=O)[C@H](C)[C@@H]2N(CCCCn3cnc(-c4cccnc4)c3)C(=O)O[C@@]21C | Active |  |  | Active | 
CC[C@H]1OC(=O)[C@H](C)[C@@H](O[C@H]2C[C@@](C)(OC)[C@@H](O)[C@H](C)O2)[C@H](C)[C@@H](O[C@@H]2O[C@H](C)C[C@H](N(C)C)[C@H]2O)[C@](C)(OC)C[C@@H](C)C(=O)[C@H](C)[C@@H]2N(NCCCc3ccnc4ccccc34)C(=O)O[C@@]21C | Active | inactive | inactive |  | 
CO[C@@H]1[C@@H](O[C@@H]2O[C@H](C)[C@@H](O[C@H]3C[C@@](C)(O)[C@@H](OC(=O)CC(C)C)[C@H](C)O3)[C@H](N(C)C)[C@H]2O)[C@@H](CC=O)C[C@@H](C)[C@@H](O)/C=C/C=C/C[C@@H](C)OC(=O)C[C@H]1OC(C)=O | inactive |  |  |  | 
CC[C@H]1OC(=O)[C@H](C)C(=O)[C@H](C)[C@@H](O[C@@H]2O[C@H](C)C[C@H](N(C)C)[C@H]2O)[C@](C)(OCC=Cc2cnc3ccccc3c2)C[C@@H](C)C(=O)[C@H](C)[C@H]2NC(=O)O[C@@]21C [CETHROMYCIN] |  | inactive | inactive | Active | MIC (Escherichia coli [9]): 1.5 µg/mL (≈ 1.96 µM); Activity (Escherichia coli [3]): Active; MIC (Escherichia coli [10]): 1.5 µg/mL (≈ 1.96 µM)
O=C(N[C@H](CO)[C@H](O)c1ccc([N+](=O)[O-])cc1)C(Cl)Cl [CHLORAMPHENICOL] |  |  |  |  | MIC (Escherichia coli [9]): 2 µg/mL (≈ 6.19 µM); MIC (Escherichia coli [10]): 2 µg/mL (≈ 6.19 µM)
CC[C@H]1OC(=O)[C@H](C)[C@@H](O[C@H]2C[C@@](C)(OC)[C@@H](O)[C@H](C)O2)[C@H](C)[C@@H](O[C@@H]2O[C@H](C)C[C@H](N(C)C)[C@H]2O)[C@](C)(O)C[C@@H](C)C(=O)[C@H](C)[C@@H](O)[C@]1(C)O [ERYTHROMYCIN] |  | inactive | inactive | Active | Activity (Escherichia coli [11]): Active; Activity (Escherichia coli [12]): Active; MIC (Escherichia coli [9]): 25 µg/mL (≈ 34.1 µM); MIC (Escherichia coli [10]): 3 µg/mL (≈ 4.09 µM)
CC[C@H]1OC(=O)[C@H](C)C(=O)[C@H](C)[C@@H](O[C@@H]2O[C@H](C)C[C@H](N(C)C)[C@H]2O)[C@](C)(OC)C[C@@H](C)C(=O)[C@H](C)[C@H]2N(CCCCn3cnc(-c4cccnc4)c3)C(=O)O[C@]12C [TELITHROMYCIN] |  | inactive | inactive | Active | Activity (Escherichia coli [5]): Active; MIC (Escherichia coli [9]): 1.5 µg/mL (≈ 1.85 µM); Activity (Escherichia coli [3]): Active; MIC (Escherichia coli [10]): 1.5 µg/mL (≈ 1.85 µM); Activity (Escherichia coli [13]): inactive; Activity (Escherichia coli [14]): Active
SPIRAMYCIN | inactive |  |  |  | 
